Reference: PubChem BioAssay AID248 (DTP/NCI, 2004)
“And” between values parts separate entries of the source, which are not always exact repeats. Equal entries are not always repeated. Toxic doses and inconclusive results are not listed. No stated cut-off is given here; in the data, active means T/C of 150% or more; inactive means T/C below 125%.

Test system: L1210 leukemia ip in BDF1 mice, survival T/C
Test: NCI In Vivo Anticancer Drug Screen. Data for tumor model L1210 Leukemia (intraperitoneal) in B6D2F1 (BDF1) mice
Conditions: endpoint: mean survival time, higher = longer survival
How it was run: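 Each compound was tested against a transplantable tumor grown in mice. The endpoint was survival, with treated animals benchmarked against vehicle controls as a simple ratio.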

[1] = dose: 25.0 mg/kg/injection, schedule: Q01DX009 (ip), vehicle: saline
[2] = dose: 100.0 mg/kg/injection, schedule: Q01DX009 (ip), vehicle: saline with Tween-80
[3] = dose: 100.0 mg/kg/injection, schedule: Q04DX002 (ip), vehicle: Klucel (hydroxypropylcellulose) (HPC)
[4] = dose: 200.0 mg/kg/injection, schedule: Q04DX002 (ip), vehicle: Klucel (hydroxypropylcellulose) (HPC)
[5] = dose: 400.0 mg/kg/injection, schedule: Q04DX002 (ip), vehicle: Klucel (hydroxypropylcellulose) (HPC)
[6] = dose: 100.0 mg/kg/injection, schedule: Q01DX001 (ip), vehicle: saline with Tween-80
[7] = dose: 200.0 mg/kg/injection, schedule: Q01DX001 (ip), vehicle: saline with Tween-80
[8] = dose: 400.0 mg/kg/injection, schedule: Q01DX001 (ip), vehicle: saline with Tween-80
[9] = dose: 100.0 mg/kg/injection, schedule: Q01DX001 (ip), vehicle: carboxymethylcellulose (CMC)
[10] = dose: 200.0 mg/kg/injection, schedule: Q01DX001 (ip), vehicle: carboxymethylcellulose (CMC)
[11] = dose: 400.0 mg/kg/injection, schedule: Q01DX001 (ip), vehicle: carboxymethylcellulose (CMC)
[12] = dose: 100.0 mg/kg/injection, schedule: Q01DX001 (ip), vehicle: Klucel (hydroxypropylcellulose) (HPC)
[13] = dose: 200.0 mg/kg/injection, schedule: Q01DX001 (ip), vehicle: Klucel (hydroxypropylcellulose) (HPC)
[14] = dose: 400.0 mg/kg/injection, schedule: Q01DX001 (ip), vehicle: Klucel (hydroxypropylcellulose) (HPC)
[15] = dose: 100.0 mg/kg/injection, schedule: Q01DX001 (ip), vehicle: saline
[16] = dose: 200.0 mg/kg/injection, schedule: Q01DX001 (ip), vehicle: saline
[17] = dose: 400.0 mg/kg/injection, schedule: Q01DX001 (ip), vehicle: saline
[18] = dose: 100.0 mg/kg/injection, schedule: Q01DX009 (ip), vehicle: Klucel (hydroxypropylcellulose) (HPC)
[19] = dose: 200.0 mg/kg/injection, schedule: Q01DX009 (ip), vehicle: Klucel (hydroxypropylcellulose) (HPC)

Measured: T/C

CCC(CN(C)C)C(=O)c1ccccc1 (stereo not given)
inactive: dose: 6.0 mg/kg/injection, schedule: Q01DX009 (ip), vehicle: saline 93 % of control | dose: 12.0 mg/kg/injection, schedule: Q01DX009 (ip), vehicle: saline 91 % of control | dose: 25.0 mg/kg/injection, schedule: Q01DX009 (ip), vehicle: saline with Tween-80 93 % of control | [1] 88 % of control | dose: 25.0 mg/kg/injection, schedule: Q04DX002 (ip), vehicle: saline with Tween-80 100 % of control | dose: 50.0 mg/kg/injection, schedule: Q01DX009 (ip), vehicle: saline with Tween-80 96 % of control | dose: 50.0 mg/kg/injection, schedule: Q04DX002 (ip), vehicle: saline with Tween-80 96 % of control | [2] 93 % of control | dose: 100.0 mg/kg/injection, schedule: Q04DX002 (ip), vehicle: saline with Tween-80 104 % of control

OC1COC(CCl)OC1C1OC(CCl)OCC1O (stereo not given)
inactive: [3] 96 % of control | [4] 96 % of control | [5] 96 % of control

CCOC(=O)C1C(=O)C(CN(CCCl)CCCl)C(=O)C(C(=O)OCC)C1c1cc(OC)c(OC)c(OC)c1 (stereo not given)
inactive: [3] 114 % of control | [4] 102 % of control | [5] 111 % of control

CNC(=O)C(C)(C)C
inactive: [6] 100 % of control | [7] 103 % of control | [8] 100 % of control

Cc1cc(=O)[nH]c2c(Cl)ccc(C(F)(F)F)c12
inactive: dose: 100.0 mg/kg/injection, schedule: Q01DX001 (ip), vehicle: other 94 % of control | dose: 200.0 mg/kg/injection, schedule: Q01DX001 (ip), vehicle: other 94 % of control | dose: 400.0 mg/kg/injection, schedule: Q01DX001 (ip), vehicle: other 114 % of control

O=C(Nc1ccc(F)cc1)Nc1cccc(O)c1
inactive: dose: 50.0 mg/kg/injection, schedule: Q01DX001 (ip), vehicle: carboxymethylcellulose (CMC) 106 % of control | dose: 50.0 mg/kg/injection, schedule: Q04DX002 (ip), vehicle: carboxymethylcellulose (CMC) 97 % of control and 98 % of control | dose: 50.0 mg/kg/injection, schedule: Q04DX003 (ip), vehicle: carboxymethylcellulose (CMC) 101 % of control | [9] 103 % of control | dose: 100.0 mg/kg/injection, schedule: Q01DX009 (ip), vehicle: carboxymethylcellulose (CMC) 92 % of control and 101 % of control | dose: 100.0 mg/kg/injection, schedule: Q04DX002 (ip), vehicle: carboxymethylcellulose (CMC) 94 % of control and 95 % of control and 98 % of control | dose: 100.0 mg/kg/injection, schedule: Q04DX003 (ip), vehicle: carboxymethylcellulose (CMC) 102 % of control | [10] 96 % of control | dose: 200.0 mg/kg/injection, schedule: Q01DX009 (ip), vehicle: carboxymethylcellulose (CMC) 98 % of control | dose: 200.0 mg/kg/injection, schedule: Q04DX002 (ip), vehicle: carboxymethylcellulose (CMC) 95 % of control and 101 % of control and 90 % of control | dose: 200.0 mg/kg/injection, schedule: Q04DX003 (ip), vehicle: carboxymethylcellulose (CMC) 98 % of control | dose: 400.0 mg/kg/injection, schedule: Q01DX009 (ip), vehicle: carboxymethylcellulose (CMC) 98 % of control and 103 % of control

COc1cc2ccc(CCNCc3ccccc3)cc2cc1OC
inactive: [1] 97 % of control | dose: 50.0 mg/kg/injection, schedule: Q01DX009 (ip), vehicle: saline 91 % of control | dose: 100.0 mg/kg/injection, schedule: Q01DX009 (ip), vehicle: saline 90 % of control | dose: 100.0 mg/kg/injection, schedule: Q04DX003 (ip), vehicle: saline 87 % of control

CCCCCC(O)C(C)C (stereo not given)
inactive: dose: 37.5 mg/kg/injection, schedule: Q04DX003 (ip), vehicle: saline 96 % of control | dose: 75.0 mg/kg/injection, schedule: Q04DX003 (ip), vehicle: saline 108 % of control | dose: 150.0 mg/kg/injection, schedule: Q04DX003 (ip), vehicle: saline 94 % of control

CCSCCOP(=O)(N(C)C)N(C)C
inactive: dose: 25.0 mg/kg/injection, schedule: Q04DX002 (ip), vehicle: Klucel (hydroxypropylcellulose) (HPC) 96 % of control | dose: 50.0 mg/kg/injection, schedule: Q04DX002 (ip), vehicle: Klucel (hydroxypropylcellulose) (HPC) 96 % of control | [3] 93 % of control and 98 % of control

Cc1cc(S(=O)(=O)F)ccc1NC(=O)Oc1ccccc1
inactive: dose: 100.0 mg/kg/injection, schedule: Q04DX003 (ip), vehicle: gum acacia 95 % of control | dose: 200.0 mg/kg/injection, schedule: Q04DX003 (ip), vehicle: gum acacia 104 % of control | dose: 400.0 mg/kg/injection, schedule: Q04DX003 (ip), vehicle: gum acacia 87 % of control

CCOP(=S)(N/N=C1/CCCC(C)C1)OCC (stereo not given)
inactive: [9] 93 % of control | [10] 93 % of control | [11] 97 % of control

Nc1c(I)cc2c(c1I)Cc1cc([N+](=O)[O-])ccc1-2
inactive: [9] 106 % of control | [10] 103 % of control | [11] 103 % of control

N#Cc1oc2ccccc2c1OC(=O)C(F)(F)F
inactive: dose: 100.0 mg/kg/injection, schedule: Q04DX003 (ip), vehicle: saline with Tween-80 100 % of control | dose: 200.0 mg/kg/injection, schedule: Q04DX003 (ip), vehicle: saline with Tween-80 95 % of control

S=C(NCc1ccccc1)c1ccccc1
inactive: [12] 106 % of control | [13] 108 % of control | [14] 104 % of control

CC1C(=O)OC2CC[N+]3([O-])CC=C(COC(=O)C(C)(O)C1(C)O)C23 (stereo not given)
inactive: [15] 96 % of control | [16] 96 % of control | [17] 102 % of control

O=C(CCO)Nc1cccc(Cl)c1
inactive: [12] 98 % of control | [18] 93 % of control | [13] 101 % of control | [19] 88 % of control | [14] 91 % of control | dose: 400.0 mg/kg/injection, schedule: Q01DX009 (ip), vehicle: Klucel (hydroxypropylcellulose) (HPC) 92 % of control

Cc1ccc(C(=O)NC(N)=O)cc1
inactive: [18] 101 % of control | [19] 95 % of control

O=S1CCOCC1.O=S1CCOCC1.O=S1CCOCC1.O=S1CCOCC1.O=S1CCOCC1.O=S1CCOCC1.[Hg+2].[O-][Cl+3]([O-])([O-])O
inactive: dose: 3.0 mg/kg/injection, schedule: Q01DX009 (ip), vehicle: Klucel (hydroxypropylcellulose) (HPC) 93 % of control | dose: 6.0 mg/kg/injection, schedule: Q01DX009 (ip), vehicle: Klucel (hydroxypropylcellulose) (HPC) 92 % of control | dose: 12.5 mg/kg/injection, schedule: Q01DX009 (ip), vehicle: Klucel (hydroxypropylcellulose) (HPC) 98 % of control

CCCCC(=O)N/N=C/c1ccc(Br)cc1
inactive: [15] 100 % of control | [16] 97 % of control | [17] 102 % of control

CC(C)N(/N=N/c1[nH]ncc1C(N)=O)C(C)C
inactive: [6] 104 % of control | [2] 108 % of control | [7] 104 % of control | dose: 200.0 mg/kg/injection, schedule: Q01DX009 (ip), vehicle: saline with Tween-80 98 % of control | [8] 93 % of control | dose: 400.0 mg/kg/injection, schedule: Q01DX009 (ip), vehicle: saline with Tween-80 95 % of control
